This is an account of results in PubChem BioAssay (NCI).

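These data come from cells grown in 96-well plates and exposed to compound for 48 hours at five concentrations. TGI marks complete inhibition of growth.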

Some test systems named below: BT-549 breast; TK-10 renal; MOLT-4 leukemia; SK-MEL-28 melanoma; HS 578T breast; CAKI-1 renal; SK-MEL-2 melanoma; HOP-92 NSCLC; EKVX NSCLC; HOP-62 NSCLC; MALME-3M melanoma.
What all share (test): DTP human tumour cell line panel, 48 h

For `Clc1ccccc1/C=c1\nc(-c2ccccc2)n2c1nc1ccccc12`, the TGI in the assay with BT-549 breast was 50 µM; in the assay on TK-10 renal, more than 100 µM; in the assay on MOLT-4 leukemia it was more than 100 µM; in the assay with SK-MEL-28 melanoma, more than 100 µM; with HS 578T breast, more than 100 µM; in the assay with CAKI-1 renal it was more than 100 µM. Moreover, the TGI in the assay on SK-MEL-2 melanoma is more than 100 µM; in the assay with HOP-92 NSCLC, more than 100 µM; in the assay with EKVX NSCLC, 62.9 µM; with HOP-62 NSCLC, 50.3 µM; in the assay with MALME-3M melanoma, more than 100 µM.

Regarding `O=C(O)c1ccc(C(=O)c2ccccc2C(=O)O)cc1C(=O)O`, the TGI in the assay with BT-549 breast, with TK-10 renal, in the assay on MOLT-4 leukemia, with SK-MEL-28 melanoma, with HS 578T breast and with CAKI-1 renal was more than 100 µM each time. The TGI in the assay on SK-MEL-2 melanoma, with HOP-92 NSCLC, in the assay on EKVX NSCLC, with HOP-62 NSCLC and in the assay with MALME-3M melanoma was more than 100 µM throughout.

Take `CC(C)(C)OC(=O)n1c2ccccc2c2c(=O)nc(N3CCCCC3)sc21`: the TGI in the assay with BT-549 breast, in the assay with TK-10 renal, in the assay with MOLT-4 leukemia, with SK-MEL-28 melanoma, in the assay with HS 578T breast and in the assay with CAKI-1 renal was more than 100 µM throughout. Further, the TGI in the assay on SK-MEL-2 melanoma, in the assay on HOP-92 NSCLC, in the assay with EKVX NSCLC, in the assay with HOP-62 NSCLC and in the assay on MALME-3M melanoma was more than 100 µM in each case.

`O=c1[nH]c2nnc(COc3ccc(Cl)cc3Cl)n2nc1Cc1ccccc1`: the TGI is more than 100 µM in the assay on BT-549 breast; 96.5 µM in the assay on TK-10 renal; more than 100 µM with MOLT-4 leukemia; more than 100 µM in the assay with SK-MEL-28 melanoma; more than 100 µM with HS 578T breast; more than 100 µM with CAKI-1 renal. Further, the TGI in the assay on SK-MEL-2 melanoma was more than 100 µM; in the assay with HOP-92 NSCLC it was 69.5 µM; in the assay with EKVX NSCLC it was more than 100 µM; in the assay on HOP-62 NSCLC, more than 100 µM; with MALME-3M melanoma, more than 100 µM.

In the case of `CC(ON(C(c1ccccc1)C(C)C)C(C)(C)C)c1ccccc1` (configuration not stated), the TGI in the assay with BT-549 breast stood at 28.7 µM; in the assay with TK-10 renal, 46.2 µM; in the assay on MOLT-4 leukemia, 35.9 µM; in the assay on SK-MEL-28 melanoma, 47.5 µM; with HS 578T breast it was 64.1 µM; with CAKI-1 renal it was 55.7 µM. In addition, the TGI in the assay on SK-MEL-2 melanoma was determined as 34.4 µM; with HOP-92 NSCLC it was 40.3 µM; with EKVX NSCLC, 29 µM; with HOP-62 NSCLC it was 38.9 µM; in the assay with MALME-3M melanoma, 71.6 µM.

For `Cn1cnc([N+](=O)[O-])c1Sc1nc(N)nc2c1ncn2C1OC(CO)C(O)C1O` (configuration not stated), the TGI in the assay with BT-549 breast is more than 100 µM; with TK-10 renal, 87.6 µM; with MOLT-4 leukemia, more than 100 µM; in the assay with SK-MEL-28 melanoma, more than 100 µM; with HS 578T breast, more than 100 µM; with CAKI-1 renal it was more than 100 µM. Moreover, the TGI is 21.1 µM with SK-MEL-2 melanoma; more than 100 µM in the assay on HOP-92 NSCLC; more than 100 µM with EKVX NSCLC; more than 100 µM with HOP-62 NSCLC; more than 100 µM with MALME-3M melanoma.

For `COc1ccc(C2NC(=S)Nc3c2c(=O)oc2c3ccc3ccccc32)cc1` (configuration not stated), the total growth inhibition concentration (TGI) in the assay with BT-549 breast, in the assay on TK-10 renal, in the assay on MOLT-4 leukemia, in the assay with SK-MEL-28 melanoma, in the assay on HS 578T breast and in the assay with CAKI-1 renal was more than 100 µM throughout. The TGI in the assay on SK-MEL-2 melanoma, in the assay with HOP-92 NSCLC, in the assay on EKVX NSCLC, with HOP-62 NSCLC and with MALME-3M melanoma was more than 100 µM in each case.
